“Also recorded” adds a separate entry of the source. Where two headings read alike, the source gives them in different places. Residues, ends and D or L forms follow the SMILES beside them.
Key:
[1] = test system: mouse peritoneal macrophages; conditions: in vitro; cited from earlier work
[2] = cited from earlier work
pathogenic strains [3] = conditions: in vitro; cited from earlier work
Staphylococcus aureus [4] = conditions: Mice, IM injection; cited from earlier work
Staphylococcus aureus [5] = conditions: sheep, IM injection; cited from earlier work
small intestine motility = conditions: 10 g/300 ml water via intragastric probe; cancelled with naloxone; cited from earlier work
pathogenic strains [6] = conditions: in vitro; cited from earlier work; remark: listed apart in the source
platelet aggregation = conditions: in vitro; cited from earlier work
[7] = Storage of fermented product thermized at 75° C. for 1 minute; conditions: thermized 75° C., about 1 minute
Procedure: FIG. 5: Curves illustrating the change in the residual content of bioactive peptide αS1 [91-100], added after fermentation in a fermented product and then thermized at 75° C. for 1 minute, and stored at 10° C. up to the expiry date.
(FIG. 5), but at the expense of the overall quality of the finished product. Specifically, this solution has many drawbacks: • the thermization of a fermented dairy mass entails the use of stabilizers added before the heat treatment (pectins, starches, carrageenans, etc.), which complicates the process and substantially increases the cost of the formula; • the industrial manufacturing line is more complex and requires a larger specific investment; • the product no longer benefits from appellations associated with products containing live ferments (such as yogurt) and as a result loses the benefits associated with the consumption of lactic ferments; • the organoleptic impact (generally negative) is substantial.

191-193 casein: Bovine β-casein fragment 191-193 (LLY; UniProt P02666 206-208, looked up, fragment)
effect on mouse peritoneal macrophages [1]: Stimulation of mouse | in vivo protection [2]: No in vivo protection

CC[C@H](C)[C@H](NC(=O)[C@@H]1CCCN1C(=O)[C@H](Cc1cnc[nH]1)NC(=O)[C@H](CCCCN)NC(=O)[C@@H]1CCCN1C(=O)[C@@H](N)CCCNC(=N)N)C(=O)N[C@@H](CCCCN)C(=O)N[C@@H](Cc1cnc[nH]1)C(=O)N[C@@H](CCC(N)=O)C(=O)NCC(=O)N[C@@H](CC(C)C)C(=O)N1CCC[C@H]1C(=O)N[C@@H](CCC(N)=O)C(=O)N[C@@H](CCC(=O)O)C(=O)N[C@H](C(=O)N[C@@H](CC(C)C)C(=O)N[C@@H](CC(N)=O)C(=O)N[C@@H](CCC(=O)O)C(=O)N[C@@H](CC(N)=O)C(=O)N[C@@H](CC(C)C)C(=O)N[C@@H](CC(C)C)C(=O)N[C@@H](CCCNC(=N)N)C(=O)N[C@@H](Cc1ccccc1)C(=O)O)C(C)C [isracidin] (H-RPKHPIKHQGLPQEVLNENLLRF-OH)
growth of pathogenic strains (pathogenic strains [3]): Inhibition of growth | efficacy against Staphylococcus aureus (Staphylococcus aureus [4]): Mice, sheep: effective in IM | efficacy against Staphylococcus aureus (Staphylococcus aureus [5]): Mice, sheep: effective in IM

Casein
small intestine motility (small intestine motility): intragastric probe: inhibition

Lactoferricin
growth of pathogenic strains (pathogenic strains [6]): Inhibition of growth

Peptide 106-116 of bovine κ-casein: Peptide 106-116 of bovine κ-casein (MAIPPKKNQDK; UniProt P02668 127-137, looked up, fragment)
platelet aggregation (platelet aggregation): Inhibition of

peptide αS1 [91-100]: fragment 91-100 of casein αS1; peptide with relaxing properties contained in the milk protein hydrolyzate Lactium® (Ingredia) (YLGYLEQLLR; UniProt P02662 106-115, looked up, fragment)
stability of the peptide after heat treatment of the fermented product [7]: possible to ensure the stability; also recorded: possible to preserve

Source: patent US20080050354A1, “PROTECTING BIOACTIVE FOOD INGREDIENTS USING MICROORGANISMS HAVING REDUCED METABOLIZING CAPACITY” (COMPAGNIE GERVAIS DANONE, priority 2004, published 2008)
